Experimental data: patent publication US20200138827A1, “SMALL MOLECULE MODULATORS OF HUMAN STING” (Curadev Pharma Limited, priority 2017, published 2020)
Where a name gives a salt, the structure may show the parent alone. Read-outs that look alike come from different tables or passages of the source. One block for each compound: values may come before it.

Tests used:
WT/R232 STING protein = molecular target: T1, WT/R232 STING protein (Homo sapiens, UniProt Q86WV6, H232R); assay: Luciferase reporter assay in HEK293T-hSTING-Luciferase cells, WT/R232; assay type: cell-based; details: 20 hr stimulation, read-out: R232 Activity (EC50 range)
T1 construct: host or cells: HEK293T
T1 sequence (Q86WV6 whole entry H232R): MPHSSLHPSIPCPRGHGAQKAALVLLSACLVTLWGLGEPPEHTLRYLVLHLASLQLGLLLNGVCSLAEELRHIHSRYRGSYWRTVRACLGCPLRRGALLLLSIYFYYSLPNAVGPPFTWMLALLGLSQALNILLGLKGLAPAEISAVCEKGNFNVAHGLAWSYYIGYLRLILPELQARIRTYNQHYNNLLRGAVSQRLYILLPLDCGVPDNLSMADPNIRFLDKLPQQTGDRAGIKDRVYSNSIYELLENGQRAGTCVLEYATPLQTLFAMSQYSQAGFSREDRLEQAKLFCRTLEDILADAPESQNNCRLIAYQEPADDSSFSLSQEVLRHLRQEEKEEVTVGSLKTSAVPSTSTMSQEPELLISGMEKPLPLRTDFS
How it was run: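 […], read by luminescence from supernatant after 20 h compound stimulation. Cells: clonally selected HEK293T (5×10^5/well) stably carrying WT/R232 human STING and a luciferase reporter under five tandem ISREs fused to an ISG54 minimal promoter.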

hSTING(H232) = molecular target: T2, hSTING(H232) (Homo sapiens, UniProt Q86WV6); assay: Luciferase reporter assay in HEK293T-hSTING-Luciferase cells, H232 polymorph; assay type: cell-based; details: 20 hr stimulation, read-out: H232 activity (EC50 range)
T2 construct: host or cells: HEK293T
T2 sequence (Q86WV6 whole entry): as the sequence (Q86WV6 whole entry H232R) above, with R232H counted along it
Description: (§1) • a) Stable STING expressing cells—Stable HEK293T STING-expressing cell lines were generated using plasmids purchased from Invivogen, Calif., USA, that contain STING cDNA cloned into the pUNO-1 vector under hEF1-HTLV promoter and containing the Blasticidin selection cassette. The plasmids hSTING(R232), hSTING(H232), hSTING(HAQ) were directly procured from Invivogen while hSTING (AQ) and hSTING (Q) were derived from hSTING(HAQ) and hSTING (R232) plasmids respectively by using a PCR based site directed mutagenesis method. These vectors were individually transfected into HEK293T cells using Lipofectamine (Invitrogen) and transfected cells were selected under Blasticidin selection. These transfected cells were further subjected to clonal selection using the limiting dilution method to obtain clonally pure populations of HEK cells transfected with each of the above mentioned human STING variants. Only those clones were selected in which ligand independent activation of STING was minimal. • b) Stable Luciferase reporter gene expressing cells—Stable HEK293T Luciferase reporter gene expressing cell lines were generated using pCDNA4 plasmids under an IRF-inducible promoter. This promoter is comprised of five tandem interferon-stimulated response elements (ISRE) fused to an ISG54 minimal promoter. This vector was transfected into HEK293T cells using Lipofectamine (Invitrogen) and transfected cells were selected under Zeocin selection. These transfected cells were further subjected to clonal selection using the limiting dilution method to obtain clonally pure populations of HEK cells transfected the Luciferase reporter construct. Only those clones were selected in which ligand independent induction of luciferase was minimal.
(§2) 5×10^5 clonally selected HEK293T-hSTING-Luciferase cells were seeded in 384-well plates in growth medium and stimulated with novel compounds. After 20 hr of stimulation supernatant were removed and secretary reporter gene activity were measured using the Quanti-Luc detection system (Invivogen) on a Spectramax i3X luminometer.
(§3) The 5 major polymorphisms of human STING are shown in FIG. 1, with their prevalence in human populations indicated.

hSTING(HAQ) = molecular target: T3, hSTING(HAQ) (Homo sapiens, UniProt Q86WV6, G230A/H232R/R293Q/R71H); assay: Luciferase reporter assay in HEK293T-hSTING-Luciferase cells, HAQ polymorph; assay type: cell-based; details: 20 hr stimulation, read-out: HAQ activity (EC50 range)
T3 construct: host or cells: HEK293T
T3 sequence (Q86WV6 whole entry R71H/G230A/H232R/R293Q): as the sequence (Q86WV6 whole entry H232R) above, with R71H, G230A, R293Q counted along it
Description: as §1, §2, §3

IRF pathway = assay: Reporter gene expression assay in THP1-Dual cells, IRF axis (secreted Lucia luciferase); assay type: cell-based, human; details: read-out: THP-IRF activity (EC50 range)
Experimental: (§4) THP1-Dual™ cells (Invivogen) were derived from the human THP-1 monocyte cell line by stable integration of two inducible reporter constructs. As a result, THP1-Dual™ cells allow the simultaneous study of the NF-κB pathway, by monitoring the activity of secreted SEAP, and the IRF pathway, by assessing the activity of a secreted luciferase (Lucia). […] THP1-Dual™ cells were seeded in 384-well plates in growth medium and stimulated with novel compounds. After […] of stimulation supernatant were removed and reporter proteins were readily measured in the cell culture supernatant using QUANTI-Blue™ (Invivogen), a SEAP detection reagent, and QUANTI-Luc™ (Invivogen), a luciferase detection reagent on a Spectramax i3X luminometer.

NF-κB pathway = assay: Reporter gene expression assay in THP1-Dual cells, NFkB axis (secreted SEAP); assay type: cell-based, human; details: read-out: THP-NFKB activity (EC50 range)
Experimental: as §4

SMILES: CC1(C)Sc2ccc(C(=O)NCc3cc4ccccc4o3)cc2N(Cc2ccccc2F)C1=O [Example 161, N-(benzofuran-2-ylmethyl)-4-(2-fluorobenzyl)-2,2-dimethyl-3-oxo-3,4-dihydro-2H-benzo[b][1,4] thiazine-6-carboxamide]
EC50 (WT/R232 STING protein): 1 to 10 µM
EC50 (hSTING(H232)): > 10 µM
EC50 (hSTING(HAQ)): 1 to 10 µM
EC50 (IRF pathway; Homo sapiens, THP1-Dual): > 10 µM
EC50 (NF-κB pathway; Homo sapiens, THP1-Dual): > 10 µM

SMILES: CC1Sc2ccc(C(=O)NCc3ccccc3)nc2N(Cc2cc(F)cc(F)c2)C1=O (stereo not drawn) [Example 191, N-benzyl-4-(3,5-difluorobenzyl)-2-methyl-3-oxo-3,4-dihydro-2H-pyrido[3,2-b-1,4]thiazine-6-carboxamide]
EC50 (WT/R232 STING protein): < 1 µM
EC50 (hSTING(H232)): 1 to 10 µM
EC50 (hSTING(HAQ)): 1 to 10 µM
EC50 (IRF pathway; Homo sapiens, THP1-Dual): 1 to 10 µM
EC50 (NF-κB pathway; Homo sapiens, THP1-Dual): 1 to 10 µM

SMILES: CC1(CCl)Sc2ccc(C(=O)NCc3ccc(F)cc3F)cc2N(Cc2c(F)cccc2Cl)C1=O (stereo not drawn) [Example 150, 4-(2-chloro-6-fluorobenzyl)-2-(chloromethyl)-N-(2,4-difluorobenzyl)-2-methyl-3-oxo-3,4-dihydro-2H-benzo[b][1,4] thiazine-6-carboxamide]
EC50 (IRF pathway): 1 to 10 µM
EC50 (NF-κB pathway): 1 to 10 µM

SMILES: O=C(NCc1ccccc1Cl)c1ccc2c(c1)N(Cc1cccc(Cl)c1)C(=O)CS2 [Example 124, N-(2-chlorobenzyl)-4-(3-chlorobenzyl)-3-oxo-3,4-dihydro-2H-benzo[b-1,4]thiazine-6-carboxamide]
EC50 (WT/R232 STING protein): > 10 µM

SMILES: C[C@@H](NC(=O)c1ccc2c(c1)N(Cc1ccccc1F)C(=O)CS2)C1CCCCC1 [Example 19, (R)-N-(1-cyclohexyl-ethyl)-4-(2-flurobenzyl)-3-oxo-3,4-dihydro-2H-benzo[b-1,4]thiazine-6-carboxamide]
EC50 (WT/R232 STING protein): > 10 µM

SMILES: CC1(CO)Sc2ncc(C(=O)NCc3cc4ccccc4o3)cc2N(Cc2cc(F)cc(F)c2)C1=O (stereo not drawn) [Example 210, N-(benzofuran-2-ylmethyl)-1-(3,5-difluorobenzyl)-3-(hydroxymethyl)-3-methyl-2-oxo-2,3-dihydro-1H-pyrido[2,3-b] [1,4] thiazine-7-carboxamide]
EC50 (WT/R232 STING protein): > 10 µM

SMILES: Cc1cccc(CNC(=O)c2ccc3c(n2)N(Cc2c(F)cccc2Cl)C(=O)C(C)S3)c1 (stereo not drawn) [Example 184, 4-(2-chloro-6-fluorobenzyl)-2-methyl-N-(3-methylbenzyl)-3-oxo-3,4-dihydro-2H-pyrido[3,2-b-1,4]thiazine-6-carboxamide]
EC50 (WT/R232 STING protein): > 10 µM

SMILES: O=C(NCC1CCN(Cc2ccccc2)CC1)c1ccc2c(c1)N(Cc1c(F)cccc1Cl)C(=O)CS2 [Example 48, N-((1-benzylpiperidin-4-yl)methyl)-4-(2-chloro-6-fluorobenzyl)-3-oxo-3,4-dihydro-2H-benzo[b][1,4] thiazine-6-carboxamide]
EC50 (WT/R232 STING protein): > 10 µM

SMILES: CC1Sc2ccc(C(=O)NCc3cnn(C)c3)cc2N(Cc2cc(F)cc(F)c2)C1=O (stereo not drawn) [Example 169, 4-(3,5-difluorobenzyl)-2-methyl-N-((1-methyl-1H-pyrazol-4-yl)methyl)-3-oxo-3,4-dihydro-2H-benzo[b][1,4] thiazine-6-carboxamide]
EC50 (WT/R232 STING protein): > 10 µM

SMILES: Cc1cccc(CNC(=O)c2ccc3c(c2)N(Cc2ccccc2)C(=O)CS3)c1 [Example 76, 4-benzyl-N-(3-methylbenzyl)-3-oxo-3,4-dihydro-2H-benzo[b-1,4]thiazine-6-carboxamide]
EC50 (WT/R232 STING protein): > 10 µM

SMILES: O=C(NCc1cc2ncccc2o1)c1ccc2c(c1)N(Cc1cc(F)cc(F)c1)C(=O)CC2 [Example 275, 1-(3,5-difluorobenzyl)-N-(furo[3,2-b]pyridin-2-ylmethyl)-2-oxo-1,2,3,4-tetrahydroquinoline-7-carboxamide]
EC50 (WT/R232 STING protein): > 10 µM

SMILES: Cc1cnc(CNC(=O)c2ccc3c(c2)N(Cc2cnn(C)c2)C(=O)C(C)S3)o1 (stereo not drawn) [Example 173, 2-methyl-4-((1-methyl-1H-pyrazol-4-yl)methyl)-N-((5-methyloxazol-2-yl)methyl)-3-oxo-3,4-dihydro-2H-benzo[b][1,4] thiazine-6-carboxamide]
EC50 (WT/R232 STING protein): > 10 µM

Further lines, results first:

EC50 (WT/R232 STING protein): 1 to 10 µM
EC50 (hSTING(H232)): 1 to 10 µM
EC50 (hSTING(HAQ)): 1 to 10 µM
EC50 (IRF pathway; Homo sapiens, THP1-Dual): > 10 µM
EC50 (NF-κB pathway; Homo sapiens, THP1-Dual): 1 to 10 µM
SMILES: CC1Sc2ccc(C(=O)NCc3c(F)cc(F)cc3F)cc2N(Cc2cnn(C)c2)C1=O (stereo not drawn) [Example 133, 2-methyl-N-2,4,6-trifluorobenzyl-4-[(1-methyl-1H-pyrazol-4-yl)methyl]-3-oxo-3,4-dihydro-2H-1,4-benzothiazine-6-carboxamide]

EC50 (WT/R232 STING protein): 1 to 10 µM
EC50 (hSTING(H232)): > 10 µM
EC50 (hSTING(HAQ)): > 10 µM
EC50 (IRF pathway; Homo sapiens, THP1-Dual): > 10 µM
EC50 (NF-κB pathway; Homo sapiens, THP1-Dual): > 10 µM
SMILES: O=C(NCc1ccc(F)cc1F)c1ccc2c(n1)N(Cc1cc(F)cc(F)c1)C(=O)CC2 [Example 279, N-(2,4-difluorobenzyl)-8-(3,5-difluorobenzyl)-7-oxo-5,6,7,8-tetrahydro-1,8-naphthyridine-2-carboxamide]

EC50 (WT/R232 STING protein): < 1 µM
EC50 (hSTING(H232)): < 1 µM
EC50 (hSTING(HAQ)): 1 to 10 µM
EC50 (IRF pathway; Homo sapiens, THP1-Dual): > 10 µM
EC50 (NF-κB pathway; Homo sapiens, THP1-Dual): 1 to 10 µM
SMILES: O=C(NCc1c(F)cc(F)cc1F)c1ccc2c(c1)N(Cc1c(F)cccc1Cl)C(=O)CC2 [Example 270, 1-(2-chloro-6-fluorobenzyl)-2-oxo-N-(2,4,6-trifluorobenzyl)-1,2,3,4-tetrahydroquinoline-7-carboxamide]

EC50 (hSTING(H232)): < 1 µM
EC50 (hSTING(HAQ)): < 1 µM
EC50 (IRF pathway): 1 to 10 µM
SMILES: CC1Sc2ccc(C(=O)NCc3c(F)cc(F)cc3F)cc2N(Cc2ccccc2F)C1=O (stereo not drawn) [Example 142, 4-(2-fluorobenzyl)-2-methyl-3-oxo-N-(2,4,6-trifluorobenzyl)-3,4-dihydro-2H-benzo[b-1,4]thiazine-6-carboxamide]

EC50 (WT/R232 STING protein): < 1 µM
EC50 (IRF pathway; Homo sapiens, THP1-Dual): 1 to 10 µM
EC50 (NF-κB pathway; Homo sapiens, THP1-Dual): 1 to 10 µM
SMILES: CC1Sc2ccc(C(=O)NCc3c(F)cc(F)cc3F)cc2N(Cc2ccccc2F)C1=O (stereo not drawn) [Example 140, 4-(2-fluorobenzyl)-2-methyl-3-oxo-N-(2,4,6-trifluorobenzyl)-3,4-dihydro-2H-benzo[b-1,4]thiazine-6-carboxamide]

EC50 (WT/R232 STING protein): > 10 µM
SMILES: CC1(F)Sc2ccc(C(=O)NCc3c(F)cc(F)cc3F)cc2N(Cc2c(F)cccc2Cl)C1=O (stereo not drawn) [Example 165, 4-(2-chloro-6-fluorobenzyl)-2-fluoro-2-methyl-3-oxo-N-(2,4,6-trifluorobenzyl)-3,4-dihydro-2H-benzo[b][1,4] thiazine-6-carboxamide]

EC50 (WT/R232 STING protein): < 1 µM
SMILES: CC1Sc2ccc(C(=O)NCc3c(F)cc(F)cc3F)cc2N(Cc2c(F)ccc(O)c2Cl)C1=O (stereo not drawn) [Example 155, 4-(2-chloro-6-fluoro-3-hydroxybenzyl)-2-methyl-3-oxo-N-(2,4,6-trifluorobenzyl)-3,4-dihydro-2H-benzo[b][1,4] thiazine-6-carboxamide]

EC50 (WT/R232 STING protein): > 10 µM
SMILES: NCc1cc(C(=O)NCc2c(F)cc(F)cc2F)cc2c1SCC(=O)N2Cc1ccc(F)cc1 [Example 224, 8-(aminomethyl)-4-(4-fluorobenzyl)-3-oxo-N-(2,4,6-trifluorobenzyl)-3,4-dihydro-2H-benzo[b][1,4] thiazine-6-carboxamide hydrochloride]

EC50 (WT/R232 STING protein): 1 to 10 µM
SMILES: O=C(NCc1ccc2ccccc2c1)c1ccc2c(c1)N(Cc1c(F)cccc1Cl)C(=O)CS2 [Example 32, 4-(2-chloro-6-fluorobenzyl)-N-(naphthalen-2-ylmethyl)-3-oxo-3,4-dihydro-2H-benzo[b-1,4]thiazine 6-carboxamide]

EC50 (WT/R232 STING protein): 1 to 10 µM
SMILES: O=C(NCc1cccs1)c1ccc2c(c1)N(Cc1c(F)cccc1Cl)C(=O)CS2 [Example 107, 4-(2-chloro-6-fluorobenzyl)-3-oxo-N-(thiophen-2-ylmethyl)-3,4-dihydro-2H-benzo[b-1,4]thiazine-6-carboxamide]

EC50 (WT/R232 STING protein): 1 to 10 µM
SMILES: CC1Oc2ncc(C(=O)NCc3c(F)cc(F)cc3F)cc2N(Cc2cc(F)cc(F)c2)C1=O (stereo not drawn) [Example 240, 1-(3,5-difluorobenzyl)-3-methyl-2-oxo-N-(2,4,6-trifluorobenzyl)-2,3-dihydro-1H-pyrido[2,3-b-1,4]oxazine-7-carboxamide]
